Measurements: patent publication US20040200144A1, “Plant growth regulator and a method of producing the regulator” (Dainichiseika Color & Chemicals Mfg. Co., Ltd., priority 2003, published 2004)

Key:
Assay type in all cases: in vivo
[1] = system: prince melon young plants; assay: Dwarfing test of prince melon young plant; conditions: for Plant Height / Dwarfing Rate: 5 ml per cell on 7th day, measured 27th day; for Dwarfing Rate: vs comparative group
Protocol: (§1) 50 g of sodium tripolyphosphate was dissolved in 400 ml of distilled water at 80° C., 17.5 g of cinnamic acid was added to the sodium tripolyphosphate solution and dissolved by stirring, the resultant solution was diluted with distilled water until the total volume of solution was 500 ml, and thus 3.5% cinnamic acid aqueous solution (pH 6.5) was prepared. The aqueous solution was further diluted with distilled water 70 times or 17.5 times, and 0.05% cinnamic acid aqueous solution and 0.2% cinnamic acid aqueous solution were prepared, respectively.
(§2) Nursery soil for house use was filled into paper joint pots (each with 24 cells: 34×43×50 mm/cell), water was sufficiently given to the soil, and seeds of carrots were sowed. After seeding, the pot was placed in the same greenhouse as described above to sprout. Subsequently, on the 5th day, the cinnamic aqueous acid solutions were added to the nursery soil in the joint pots. One of the joint pots (24 cells) was prepared as a 0.05% cinnamic acid aqueous solution addition group, and 5 ml of the 0.05% cinnamic acid aqueous solution was added to the nursery soil of each cell. Another one of the join pots was prepared as a 0.2% cinnamic acid aqueous solution addition group, and 5 ml of the 0.2% cinnamic acid aqueous solution was added to the nursery soil of each cell. The other one of the joint pots was prepared as a comparative group in which 5 ml of water is added to each cell, instead of the cinnamic acid aqueous solution. Subsequently, the cultivation of carrot young plants in each group was continued under general conditions. On the 27th day, the heights of young plants in each group were measured, the dwarfing rate (%) was calculated, and the dwarfing effect of cinnamic acid aqueous solution on carrot young plants was examined. […].
In the same way as in Example 12 except that seeds of tomato were sowed, and that the cinnamic acid solutions were added to the nursery soil of the joint pot on the 7th day, the dwarfing effect of cinnamic acid aqueous solution on tomato young plants was examined. […].
In the same way as in Example 17 except that seeds of watermelon were sowed, and that plant heights were measured on the 27th day, the dwarfing effect of cinnamic acid aqueous solution on watermelon young plants was examined. […].
In the same way as in Example 21 except that seeds of prince melon were sowed, the dwarfing effect of cinnamic acid aqueous solution on prince melon young plants was examined. […]

[2] = system: burdock young plants; assay: Dwarfing test of burdock young plant; conditions: for Plant Height / Dwarfing Rate: 5 ml per cell on 4th day, measured 20th day; for Dwarfing Rate: vs comparative group
Protocol: as §1, §2
In the same way as in Example 12 except that seeds of burdock were sowed, the dwarfing effect of cinnamic acid aqueous solution on burdock young plants was examined. […]

[3] = system: qing-geng-cai young plants; assay: Dwarfing test of qing-geng-cai young plant; conditions: for Plant Height / Dwarfing Rate: 5 ml per cell on 5th day, measured 20th day; for Dwarfing Rate: vs comparative group
Protocol: as §1, §2
In the same way as in Example 5 except that seeds of […] were sowed, and that plant heights were measured on the 20th day, the dwarfing effect of cinnamic acid aqueous solution on qing-geng-cai young plants was examined. […]

[4] = system: field peas young plants; assay: Dwarfing test of field peas young plant; conditions: for Plant Height / Dwarfing Rate: measured 24th day; for Dwarfing Rate: vs comparative group
Protocol: (§3) 18.4 g of potassium hydroxide was dissolved in 400 ml of distilled water at 20° C., 50 g of cinnamic acid was added to the potassium hydroxide solution and dissolved by stirring, the resultant solution was diluted with distilled water until the total volume of solution was 500 ml, and thus 10% cinnamic acid aqueous solution (pH 8.8) was prepared. The aqueous solution was further diluted with distilled water 100 times or 33.3 times, and 0.1% cinnamic acid aqueous solution and 0.3% cinnamic acid aqueous solution were prepared, respectively.
as §2
In the same way as in Example 5 except that seeds of field peas were sowed, 0.1% and 0.3% cinnamic acid solutions in example 3 were added to the nursery soil in the joint pot, and that heights of young plants in each group were measured on the 24th day, the dwarfing effect of cinnamic acid aqueous solution on field peas young plants was examined. […]

[5] = system: tomato young plants; assay: Dwarfing test of tomato young plant; conditions: for Plant Height / Dwarfing Rate: 5 ml per cell on 7th day, measured 20th day; for Dwarfing Rate: vs comparative group
Protocol: as §1, §2
In the same way as in Example 12 except that seeds of tomato were sowed, and that the cinnamic acid solutions were added to the nursery soil of the joint pot on the 7th day, the dwarfing effect of cinnamic acid aqueous solution on tomato young plants was examined. […]

[6] = system: Chinese cabbage young plants; assay: Dwarfing test of Chinese cabbage young plant; conditions: for Plant Height / Dwarfing Rate: 5 ml per cell on 4th day, measured 22nd day; for Dwarfing Rate: vs comparative group
Protocol: Dwarfing rate (%)=[(the plant height of the comparative group)−(the plant height of an addition group)/the plant height of the comparative group]×100
as §3
Nursery soil for house use was filled into a polyethylene joint pot (36 cells: 45×45×30 mm/cell), water was sufficiently given to the soil, and seeds of Chinese cabbage were sowed. After seeding, the pot was placed in the same greenhouse as described above to sprout. Subsequently, on the 4th day, the cinnamic aqueous acid solutions were added to the nursery soil in the joint pot.
Among 36 cells, 12 cells were prepared as a 0.1% cinnamic acid aqueous solution addition group, and 5 ml of the 0.1% cinnamic acid aqueous solution was added to the nursery soil of each cell. Another 12 cells were prepared as a 0.3% cinnamic acid aqueous solution addition group, and 5 ml of the 0.3% cinnamic acid aqueous solution was added to the nursery soil of each cell. Remaining 12 cells were prepared as a comparative group in which 5 ml of water is added to each cell, instead of the cinnamic acid aqueous solution. Subsequently, the cultivation of Chinese cabbage young plants in each group was continued under general conditions. On the 22nd day, the heights of young plants in each group were measured, the dwarfing rate (%) was calculated, and the dwarfing effect of cinnamic acid aqueous solution on Chinese cabbage young plants was examined. […]

[7] = 0.1% aqueous solution of Example 3, 5 ml per cell on 5th day
[8] = 0.3% aqueous solution of Example 3, 5 ml per cell on 5th day

SMILES: O=C(O)C=Cc1ccccc1 [cinnamic acid]
- Plant Height ([1]; 0.05% aqueous solution): 5.3 cm
- Dwarfing Rate ([1]; 0.05% aqueous solution): 5.4%
- Plant Height ([1]; 0.2% aqueous solution): 4.1 cm
- Dwarfing Rate ([1]; 0.2% aqueous solution): 26.8%
- dwarfing effect ([1]; prince melon young plants, 0.05% and 0.2% aqueous solutions): effective
- Plant Height ([2]; 0.05% aqueous solution): 4.9 cm
- Dwarfing Rate ([2]; 0.05% aqueous solution): 21.0%
- Plant Height ([2]; 0.2% aqueous solution): 4.3 cm
- Dwarfing Rate ([2]; 0.2% aqueous solution): 30.6%
- dwarfing effect ([2]; burdock young plants, 0.05% and 0.2% aqueous solutions): effective
- Plant Height ([3]; 0.05% aqueous solution): 6.3 cm
- Dwarfing Rate ([3]; 0.05% aqueous solution): 7.4%
- Plant Height ([3]; 0.2% aqueous solution): 4.3 cm
- Dwarfing Rate ([3]; 0.2% aqueous solution): 36.8%
- dwarfing effect ([3]; qing-geng-cai young plants, 0.05% and 0.2% aqueous solutions): effective
- Plant Height [4, 7]: 24.3 cm
- Dwarfing Rate [4, 7]: 19.5%
- Plant Height [4, 8]: 18.1 cm
- Dwarfing Rate [4, 8]: 40.1%
- dwarfing effect ([4]; field peas young plants, 0.1% and 0.3% aqueous solutions): effective
- Plant Height ([5]; 0.05% aqueous solution): 7.3 cm
- Dwarfing Rate ([5]; 0.05% aqueous solution): 20.7%
- Plant Height ([5]; 0.2% aqueous solution): 6.1 cm
- Dwarfing Rate ([5]; 0.2% aqueous solution): 33.7%
- dwarfing effect ([5]; tomato young plants, 0.05% and 0.2% aqueous solutions): effective
- Plant Height ([6]; 0.1% aqueous solution): 7.0 cm
- Dwarfing Rate ([6]; 0.1% aqueous solution): 23.9%
- Plant Height ([6]; 0.3% aqueous solution): 6.9 cm
- Dwarfing Rate ([6]; 0.3% aqueous solution): 25.0%
- dwarfing effect ([6]; Chinese cabbage young plants, 0.1% and 0.3% aqueous solutions): effective
